Experiments:
[1] = system: sulfonylurea herbicide-sensitive Lindernia dubia subsp. major Pennell; assay: Paddy pot weeding test, flooded, two-leaf stage (Test Example 1); type: in vivo; settings: 1 g/are, three weeks after treatment, sensitive biotype, Makabe Town, Ibaraki Pref.
Description: (§1) A 5 cm×5 cm Jiffy Pot™ was charged with paddy soil, then water was introduced into each pot, seeds of sulfonylurea herbicide-sensitive Scirpus juncoides var. ohwianus, sulfonylurea herbicide-sensitive Lindernia procumbens (Krock.) Philcox, sulfonylurea herbicide-sensitive Lindernia dubia subsp. major Pennell, sulfonylurea herbicide-resistant Scirpus juncoides var. ohwianus, sulfonylurea herbicide-resistant Lindernia procumbens (Krock.) Philcox and sulfonylurea herbicide-resistant Lindernia dubia subsp. major Pennell were sowed therein and cultivated for a prescribed period under flooding conditions. When the plants reached the two-leave stage, the prescribed number of Jiffy Pots where the plants had been grown were transferred to a 150-cm^2 rectangular plastic pot, and water was introduced to a height of 3 cm, and a chemical diluent containing a compound was applied into the pot in an amount of 1 g/are. The chemical diluent was prepared by dissolving 1.5 g compound in 2 L of N,N-dimethylformamide (DMF) containing, 2% (W/V) surfactant Tween™ 20 and then diluting it with water to adjust the total volume to 10 L.

[2] = system: sulfonylurea herbicide-resistant Lindernia dubia subsp. major Pennell; assay: as above; type: in vivo; settings: 1 g/are, three weeks after treatment, resistant biotype, Kawanishi Town, Yamagata Pref.
Description: as §1

[3] = system: sulfonylurea herbicide-sensitive Lindernia procumbens (Krock.) Philcox; assay: as above; type: in vivo; settings: 1 g/are, three weeks after treatment, sensitive biotype, Kyoto Pref.
Description: as §1

[4] = system: sulfonylurea herbicide-resistant Scirpus juncoides var. ohwianus; assay: as above; type: in vivo; settings: 1 g/are, three weeks after treatment, resistant biotype, Iwamisawa City, Hokkaido
Description: as §1

[5] = system: sulfonylurea herbicide-sensitive Scirpus juncoides var. ohwianus; assay: as above; type: in vivo; settings: 1 g/are, three weeks after treatment, sensitive biotype, Kyoto Pref.
Description: as §1

[6] = system: sulfonylurea herbicide-resistant Lindernia procumbens (Krock.) Philcox; assay: as above; type: in vivo; settings: 1 g/are, three weeks after treatment, resistant biotype, Tajiri Town, Miyagi Pref.
Description: as §1

Compound | melting point | S Lindernia dubia subsp. major Pennell (effect index) [1] | R Lindernia dubia subsp. major Pennell (effect index) [2] | S Lindernia procumbens (Krock.) Philcox (effect index) [3] | R Scirpus juncoides var. ohwianus (effect index) [4] | S Scirpus juncoides var. ohwianus (effect index) [5] | R Lindernia procumbens (Krock.) Philcox (effect index) [6]
CCNc1ccc2nc(Cl)c(NC(=O)NS(=O)(=O)c3nc(OC)cc(OC)n3)n2n1 [Compound No. 3] | 169 to 171 °C | 5 (excellent 81 to 100) | 5 (excellent 81 to 100) | 5 (excellent 81 to 100) | 5 (excellent 81 to 100) | 5 (excellent 81 to 100) | 5 (excellent 81 to 100)
COc1cc(OC)nc(S(=O)(=O)NC(=O)Nc2c(S(C)(=O)=O)nn3ccsc23)n1 [Compound No. 35] | 190 to 201 °C | 5 (excellent 81 to 100) | 5 (excellent 81 to 100) | 5 (excellent 81 to 100) | 5 (excellent 81 to 100) | 5 (excellent 81 to 100) | 3 (moderate 41 to 60)
CCc1ccc2nc(C)c(S(=O)(=O)NC(=O)Nc3nc(OC)cc(OC)n3)n2n1 [Compound No. 13, 1-(4,6-dimethoxypyrimidin-2-yl)-3-(6-ethyl-2-methylimidazo[1,2-b]pyridazin-3-ylsulfonyl)urea] | 172 to 174 °C | 5 (excellent 81 to 100) | 5 (excellent 81 to 100) | 5 (excellent 81 to 100) | 5 (excellent 81 to 100) | 5 (excellent 81 to 100) | 5 (excellent 81 to 100)
COc1cc(OC)nc(S(=O)(=O)NC(=O)Nc2c(C)nc3ccc(SC)nn23)n1 [Compound No. 19] | 178 to 180 °C (dec.) | 5 (excellent 81 to 100) | 4 (high 61 to 80) | 5 (excellent 81 to 100) | 5 (excellent 81 to 100) | 5 (excellent 81 to 100) | 5 (excellent 81 to 100)
COc1cc(OC)nc(S(=O)(=O)NC(=O)Nc2c(C)nc3ccc(N(C)C)nn23)n1 [Compound No. 14] | 183 to 185 °C (dec.) | 5 (excellent 81 to 100) | 4 (high 61 to 80) | 5 (excellent 81 to 100) | 5 (excellent 81 to 100) | 5 (excellent 81 to 100) | 3 (moderate 41 to 60)
CCc1ccc2nc(Cl)c(NC(=O)NS(=O)(=O)c3nc(OC)cc(OC)n3)n2n1 [Compound No. 37] | 162 to 166 °C | 5 (excellent 81 to 100) | 5 (excellent 81 to 100) | 5 (excellent 81 to 100) | 5 (excellent 81 to 100) | 5 (excellent 81 to 100) | 5 (excellent 81 to 100)
CCc1nc2ccc(N(C)C)nn2c1NC(=O)NS(=O)(=O)c1nc(OC)cc(OC)n1 [Compound No. 4] | 174 to 176 °C | 5 (excellent 81 to 100) | 5 (excellent 81 to 100) | 5 (excellent 81 to 100) | 5 (excellent 81 to 100) | 5 (excellent 81 to 100) | 3 (moderate 41 to 60)
COc1cc(OC)nc(S(=O)(=O)NC(=O)Nc2c(Cl)nc3ccc(SC)nn23)n1 [Compound No. 26] | 163 to 165 °C | 5 (excellent 81 to 100) | 4 (high 61 to 80) | 5 (excellent 81 to 100) | 5 (excellent 81 to 100) | 5 (excellent 81 to 100) | 3 (moderate 41 to 60)
COc1cc(OC)nc(S(=O)(=O)NC(=O)Nc2c(C(F)(F)F)nc3ccc(SC)nn23)n1 [Compound No. 12] | 266 to 267 °C | 5 (excellent 81 to 100) | 5 (excellent 81 to 100) | 5 (excellent 81 to 100) | 5 (excellent 81 to 100) | 5 (excellent 81 to 100) | 3 (moderate 41 to 60)
CCc1nc2ccc(S(C)(=O)=O)nn2c1NC(=O)NS(=O)(=O)c1nc(OC)cc(OC)n1 [Compound No. 9] | 206 to 208 °C | 5 (excellent 81 to 100) | 5 (excellent 81 to 100) | 5 (excellent 81 to 100) | 5 (excellent 81 to 100) | 5 (excellent 81 to 100) | 3 (moderate 41 to 60)
COc1cc(OC)nc(NC(=O)NS(=O)(=O)c2c(C)nc3ccc(C(C)C)nn23)n1 [Compound No. 39] |  | 5 (excellent 81 to 100) | 5 (excellent 81 to 100) | 5 (excellent 81 to 100) | 5 (excellent 81 to 100) | 5 (excellent 81 to 100) | 5 (excellent 81 to 100)
CCSc1ccc2nc(CC)c(S(=O)(=O)NC(=O)Nc3nc(OC)cc(OC)n3)n2n1 [Compound No. 7, 1-(4,6-dimethoxypyrimidin-2-yl)-3-(2-ethyl-6-ethylthioimidazo[1,2-b]pyridazin-3-ylsulfonyl)urea] | 160 to 165 °C (dec.) | 5 (excellent 81 to 100) | 4 (high 61 to 80) | 5 (excellent 81 to 100) | 5 (excellent 81 to 100) | 5 (excellent 81 to 100) | 3 (moderate 41 to 60)
CCc1nc2ccc(SC)nn2c1NC(=O)NS(=O)(=O)c1nc(OC)cc(OC)n1 [Compound No. 8] | 146 to 148 °C | 5 (excellent 81 to 100) | 5 (excellent 81 to 100) | 5 (excellent 81 to 100) | 5 (excellent 81 to 100) | 5 (excellent 81 to 100) | 5 (excellent 81 to 100)
CCOc1ccc2nc(C)c(NC(=O)NS(=O)(=O)c3nc(OC)cc(OC)n3)n2n1 [Compound No. 16] | 168 to 170 °C (dec.) | 5 (excellent 81 to 100) | 5 (excellent 81 to 100) | 5 (excellent 81 to 100) | 5 (excellent 81 to 100) | 5 (excellent 81 to 100) | 4 (high 61 to 80)
CCSc1ccc2nc(C)c(NC(=O)NS(=O)(=O)c3nc(OC)cc(OC)n3)n2n1 [Compound No. 18] | 163 to 165 °C | 5 (excellent 81 to 100) | 5 (excellent 81 to 100) | 5 (excellent 81 to 100) | 5 (excellent 81 to 100) | 5 (excellent 81 to 100) | 5 (excellent 81 to 100)
